Test results reported in BigSolDB 2.1.

CCN(CC)C(=S)SSC(=S)N(CC)CC
solubility (mole fraction) (in THF, 273.15 K): 0.0618 | solubility (mole fraction) (in THF, 278.15 K): 0.0719 | solubility (mole fraction) (in THF, 283.15 K): 0.0825 | solubility (mole fraction) (in THF, 288.15 K): 0.0942 | solubility (mole fraction) (in THF, 293.15 K): 0.111 | solubility (mole fraction) (in THF, 298.15 K): 0.131 | solubility (mole fraction) (in THF, 303.15 K): 0.152 | solubility (mole fraction) (in THF, 308.15 K): 0.173 | solubility (mole fraction) (in THF, 313.15 K): 0.198 | solubility (mole fraction) (in THF, 318.15 K): 0.228 | solubility (mole fraction) (in acetonitrile, 273.15 K): 0.0134 | solubility (mole fraction) (in acetonitrile, 278.15 K): 0.0174 | solubility (mole fraction) (in acetonitrile, 283.15 K): 0.024 | solubility (mole fraction) (in acetonitrile, 288.15 K): 0.0313 | solubility (mole fraction) (in acetonitrile, 293.15 K): 0.041 | solubility (mole fraction) (in acetonitrile, 298.15 K): 0.0558 | solubility (mole fraction) (in acetonitrile, 303.15 K): 0.0793 | solubility (mole fraction) (in acetonitrile, 308.15 K): 0.108 | solubility (mole fraction) (in acetonitrile, 313.15 K): 0.141 | solubility (mole fraction) (in acetonitrile, 318.15 K): 0.184 | solubility (mole fraction) (in dichloromethane, 273.15 K): 0.11 | solubility (mole fraction) (in dichloromethane, 278.15 K): 0.118 | solubility (mole fraction) (in dichloromethane, 283.15 K): 0.13 | solubility (mole fraction) (in dichloromethane, 288.15 K): 0.143 | solubility (mole fraction) (in dichloromethane, 293.15 K): 0.159 | solubility (mole fraction) (in dichloromethane, 298.15 K): 0.175 | solubility (mole fraction) (in dichloromethane, 303.15 K): 0.202 | solubility (mole fraction) (in dichloromethane, 308.15 K): 0.229 | solubility (mole fraction) (in dichloromethane, 313.15 K): 0.263 | solubility (mole fraction) (in ethanol, 273.15 K): 0.000903 | solubility (mole fraction) (in ethanol, 278.15 K): 0.00111 | solubility (mole fraction) (in ethanol, 283.15 K): 0.00143 | solubility (mole fraction) (in ethanol, 288.15 K): 0.00192 | solubility (mole fraction) (in ethanol, 293.15 K): 0.00266 | solubility (mole fraction) (in ethanol, 298.15 K): 0.00339 | solubility (mole fraction) (in ethanol, 303.15 K): 0.00466 | solubility (mole fraction) (in ethanol, 308.15 K): 0.0063 | solubility (mole fraction) (in ethanol, 313.15 K): 0.00911 | solubility (mole fraction) (in ethanol, 318.15 K): 0.0131 | solubility (mole fraction) (in ethyl acetate, 273.15 K): 0.00709 | solubility (mole fraction) (in ethyl acetate, 278.15 K): 0.0101 | solubility (mole fraction) (in ethyl acetate, 283.15 K): 0.0143 | solubility (mole fraction) (in ethyl acetate, 288.15 K): 0.0201 | solubility (mole fraction) (in ethyl acetate, 293.15 K): 0.0275 | solubility (mole fraction) (in ethyl acetate, 298.15 K): 0.0405 | solubility (mole fraction) (in ethyl acetate, 303.15 K): 0.0571 | solubility (mole fraction) (in ethyl acetate, 308.15 K): 0.0809 | solubility (mole fraction) (in ethyl acetate, 313.15 K): 0.107 | solubility (mole fraction) (in ethyl acetate, 318.15 K): 0.143 | solubility (mole fraction) (in isobutanol, 273.15 K): 0.00101 | solubility (mole fraction) (in isobutanol, 278.15 K): 0.00119 | solubility (mole fraction) (in isobutanol, 283.15 K): 0.00146 | solubility (mole fraction) (in isobutanol, 288.15 K): 0.00198 | solubility (mole fraction) (in isobutanol, 293.15 K): 0.00263 | solubility (mole fraction) (in isobutanol, 298.15 K): 0.0035 | solubility (mole fraction) (in isobutanol, 303.15 K): 0.0052 | solubility (mole fraction) (in isobutanol, 308.15 K): 0.00779 | solubility (mole fraction) (in isobutanol, 313.15 K): 0.011 | solubility (mole fraction) (in isobutanol, 318.15 K): 0.0152 | solubility (mole fraction) (in isopropanol, 273.15 K): 0.000564 | solubility (mole fraction) (in isopropanol, 278.15 K): 0.000733 | solubility (mole fraction) (in isopropanol, 283.15 K): 0.000981 | solubility (mole fraction) (in isopropanol, 288.15 K): 0.00133 | solubility (mole fraction) (in isopropanol, 293.15 K): 0.0018 | solubility (mole fraction) (in isopropanol, 298.15 K): 0.0026 | solubility (mole fraction) (in isopropanol, 303.15 K): 0.00346 | solubility (mole fraction) (in isopropanol, 308.15 K): 0.0047 | solubility (mole fraction) (in isopropanol, 313.15 K): 0.00651 | solubility (mole fraction) (in isopropanol, 318.15 K): 0.00964 | solubility (mole fraction) (in methanol, 273.15 K): 0.000896 | solubility (mole fraction) (in methanol, 278.15 K): 0.00105 | solubility (mole fraction) (in methanol, 283.15 K): 0.00134 | solubility (mole fraction) (in methanol, 288.15 K): 0.00172 | solubility (mole fraction) (in methanol, 293.15 K): 0.00235 | solubility (mole fraction) (in methanol, 298.15 K): 0.00323 | solubility (mole fraction) (in methanol, 303.15 K): 0.0042 | solubility (mole fraction) (in methanol, 308.15 K): 0.00541 | solubility (mole fraction) (in methanol, 313.15 K): 0.00736 | solubility (mole fraction) (in methanol, 318.15 K): 0.0106 | solubility (mole fraction) (in n-butanol, 273.15 K): 0.00109 | solubility (mole fraction) (in n-butanol, 278.15 K): 0.00155 | solubility (mole fraction) (in n-butanol, 283.15 K): 0.00216 | solubility (mole fraction) (in n-butanol, 288.15 K): 0.0028 | solubility (mole fraction) (in n-butanol, 293.15 K): 0.00375 | solubility (mole fraction) (in n-butanol, 298.15 K): 0.00518 | solubility (mole fraction) (in n-butanol, 303.15 K): 0.00715 | solubility (mole fraction) (in n-butanol, 308.15 K): 0.0104 | solubility (mole fraction) (in n-butanol, 313.15 K): 0.0151 | solubility (mole fraction) (in n-butanol, 318.15 K): 0.0208 | solubility (mole fraction) (in n-propanol, 273.15 K): 0.00101 | solubility (mole fraction) (in n-propanol, 278.15 K): 0.00127 | solubility (mole fraction) (in n-propanol, 283.15 K): 0.00167 | solubility (mole fraction) (in n-propanol, 288.15 K): 0.00229 | solubility (mole fraction) (in n-propanol, 293.15 K): 0.00301 | solubility (mole fraction) (in n-propanol, 298.15 K): 0.00423 | solubility (mole fraction) (in n-propanol, 303.15 K): 0.00571 | solubility (mole fraction) (in n-propanol, 308.15 K): 0.00797 | solubility (mole fraction) (in n-propanol, 313.15 K): 0.0106 | solubility (mole fraction) (in n-propanol, 318.15 K): 0.0155
